We go through 1 compound from ChEMBL document CHEMBL5137017, “Identification of NVP-CLR457 as an Orally Bioavailable Non-CNS-Penetrant pan-Class IA Phosphoinositol-3-Kinase Inhibitor” (J Med Chem, 2022).

A short description of data set [1]: AUC(0 to Tlast) in athymic nude mouse xenografted with rat Rat1 cells expressing myr-p110alpha at 3 mg/kg, po measured after 8 days by LC-MS/MS analysis. Also noted: time 8 day, dose 3 mg/kg, route po. As to conditions: in vivo. Type of data set: ADME, organism-based.
Data set [2] is described as follows: Tmax in Sprague-Dawley rat at 3 mg/kg, po measured upto 24 hrs by LC-MS/MS analysis. Type of data set: ADME, organism-based. As to conditions: in vivo.
Data set [3] can be described thus: Half life in OF1 mouse at 10 mg/kg,po or 3 mg/kg,iv measured upto 24 hrs by LC-MS/MS analysis. Type of data set: ADME, organism-based. As to conditions: in vivo.
Data set [4] can be described thus: Cmax in athymic nude mouse xenografted with rat Rat1 cells expressing myr-p110alpha at 20 mg/kg, po measured after 8 days by LC-MS/MS analysis. Type of data set: ADME, organism-based. More on the design: time 8 day, dose 20 mg/kg, route po. As to conditions: in vivo.
A short description of data set [5]: Stability in rat liver microsomes assessed as hepatic extraction preincubated for 3 mins followed by NADPH addition and measured after 60 mins. Type of data set: ADME, Microsome. As to conditions: read-out: ERH.
Another data set has as its system Rat1. The data set is described as follows: Antitumor activity at rat Rat1 cells expressing myr-p110alpha xenografted in athymic nude mouse assessed as T/C ratio at 40 mg/kg, po bid measured after 15 to 24 days. Type of data set: functional. As to conditions: time 15-24 day.
Data set [6] is described as follows: Aqueous solubility of compound in buffer at pH 4 by HPLC analysis. Type of data set: physicochemical.
A short description of data set [7]: Solubility of compound in simulated gastric fluid at pH 2 measured upto 30 mins by HPLC analysis. Type of data set: physicochemical.
A short description of data set [8]: Tlast in athymic nude mouse xenografted with rat Rat1 cells expressing myr-p110alpha at 40 mg/kg, po measured after 8 days by LC-MS/MS analysis. Type of data set: ADME, organism-based. As to conditions: in vivo, 192 h, time 8 day.
The nature of data set [9]: Stability in mouse liver microsomes assessed as hepatic extraction preincubated for 3 mins followed by NADPH addition and measured after 60 mins. Type of data set: ADME, Microsome. As to conditions: time 63 min, read-out: ERH. Background: Liver microsomes are a subcellular fraction often used to study metabolism.
Data set [10] is described as follows: Dose normalized Cmax in Sprague-Dawley rat at 100 mg/kg, po measured upto 24 hrs by LC-MS/MS analysis. Type of data set: ADME, organism-based. As to conditions: in vivo.
Data set [11] can be described thus: Inhibition of PI3K PTEN mutant in human HCC1395 cells assessed as reduction in phosphorylation of AKT at Ser473 residue by Western blot analysis. Type of data set: cell-based.
Data set [12] is described as follows: Dose normalized AUC in beagle dog at 0.3 mg/kg, po measured upto 24 hrs by LC-MS/MS analysis. Type of data set: ADME, organism-based, Canis lupus familiaris. As to conditions: in vivo.
Data set [13] can be described thus: Tlast in athymic nude mouse xenografted with rat Rat1 cells expressing myr-p110alpha at 3 mg/kg, po measured after 8 days by LC-MS/MS analysis. Type of data set: ADME, organism-based. As to conditions: in vivo, 192 h, time 8 day.
In data set [14] the target is T1, Phosphatidylinositol 4,5-bisphosphate 3-kinase catalytic subunit delta isoform (Homo sapiens, UniProt O00329).
T1 sequence (O00329 whole entry): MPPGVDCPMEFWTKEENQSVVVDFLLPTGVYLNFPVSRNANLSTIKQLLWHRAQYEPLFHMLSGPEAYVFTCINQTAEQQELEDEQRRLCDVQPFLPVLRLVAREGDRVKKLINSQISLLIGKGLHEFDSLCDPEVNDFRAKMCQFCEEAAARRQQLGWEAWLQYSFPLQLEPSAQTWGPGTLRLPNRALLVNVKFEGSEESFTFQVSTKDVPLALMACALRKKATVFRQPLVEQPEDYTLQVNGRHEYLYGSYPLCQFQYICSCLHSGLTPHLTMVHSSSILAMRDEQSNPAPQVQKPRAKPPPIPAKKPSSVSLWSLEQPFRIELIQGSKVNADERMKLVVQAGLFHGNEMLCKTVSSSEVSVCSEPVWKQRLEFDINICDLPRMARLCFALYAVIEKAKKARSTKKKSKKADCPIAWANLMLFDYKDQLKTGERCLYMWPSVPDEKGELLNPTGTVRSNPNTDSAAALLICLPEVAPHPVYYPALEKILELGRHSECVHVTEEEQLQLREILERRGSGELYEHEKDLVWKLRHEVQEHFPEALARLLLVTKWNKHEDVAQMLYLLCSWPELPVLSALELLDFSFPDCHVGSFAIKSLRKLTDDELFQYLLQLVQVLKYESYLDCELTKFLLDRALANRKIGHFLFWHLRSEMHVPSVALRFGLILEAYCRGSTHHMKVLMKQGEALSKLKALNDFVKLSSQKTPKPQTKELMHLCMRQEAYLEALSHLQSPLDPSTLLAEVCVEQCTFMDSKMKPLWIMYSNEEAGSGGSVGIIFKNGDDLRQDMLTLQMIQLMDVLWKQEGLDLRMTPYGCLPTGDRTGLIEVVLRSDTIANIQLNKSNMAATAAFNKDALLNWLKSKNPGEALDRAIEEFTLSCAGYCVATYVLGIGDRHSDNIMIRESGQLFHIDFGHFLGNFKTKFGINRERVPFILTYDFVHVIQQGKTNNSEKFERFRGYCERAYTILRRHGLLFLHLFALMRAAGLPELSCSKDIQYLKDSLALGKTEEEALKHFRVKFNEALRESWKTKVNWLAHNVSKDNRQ
The data set is described as follows: Inhibition of PI3Kdelta (unknown origin) using phosphatidylinositol as substrate measured for 15 to 60 mins by TR-FRET based Adapta universal kinase assay. In general terms: In TR-FRET formats the signal depends on donor and acceptor labels being close together.

Data set [15] is described as follows: Plasma protein binding in OF1 mouse plasma at 10 mg/kg,po or 3 mg/kg,iv measured after 4 hrs by rapid equilibrium dialysis method. Type of data set: ADME, organism-based. As to conditions: read-out: PPB (converted). For orientation: In equilibrium dialysis free small molecules cross a membrane that holds back macromolecules.
Data set [16] in a line: Volume of distribution at steady state in beagle dog at 0.3 mg/kg,po or 0.1 mg/kg,iv measured upto 24 hrs by LC-MS/MS analysis. Type of data set: ADME, organism-based, Canis lupus familiaris. As to conditions: in vivo.
Data set [17] concerns the target Phosphatidylinositol 4,5-bisphosphate 3-kinase catalytic subunit alpha isoform (Homo sapiens, UniProt P42336). The data set can be described thus: Inhibition of PI3Kalpha (unknown origin) using L-alpha-phosphatidylinositol as substrate in presence of ATP by Kinase Glo luminescence assay.
Data set [18] is described as follows: Toxicity in athymic nude mouse xenografted with rat Rat1 cells expressing myr-p110alpha assessed as body weight change at 20 mg/kg,po qd measured after 14 to 22 days. Type of data set: organism-based. As to conditions: in vivo, time 14-22 day.

The AUC(0-t) is the area under the concentration-time curve up to a stated or last time point. High values mean high exposure, low ones low exposure. The Tmax is the time at which the peak concentration occurs. For orientation: half-life means the time needed for the level to fall by half in the phase considered. A higher half-life goes with slow loss. The term Cmax denotes the maximum level reached in the sampled fluid or tissue. By solubility is commonly meant the concentration that dissolves in the medium under given conditions. High values mean much dissolved substance, low ones little dissolved substance. As usually defined, the IC50 is the point on the concentration scale where inhibition reaches its midpoint.

Values after ≈ are worked out from the molar mass of the structure shown.

Chain of Phosphatidylinositol 4,5-bisphosphate 3-kinase catalytic subunit alpha isoform (P42336 whole entry, canonical isoform): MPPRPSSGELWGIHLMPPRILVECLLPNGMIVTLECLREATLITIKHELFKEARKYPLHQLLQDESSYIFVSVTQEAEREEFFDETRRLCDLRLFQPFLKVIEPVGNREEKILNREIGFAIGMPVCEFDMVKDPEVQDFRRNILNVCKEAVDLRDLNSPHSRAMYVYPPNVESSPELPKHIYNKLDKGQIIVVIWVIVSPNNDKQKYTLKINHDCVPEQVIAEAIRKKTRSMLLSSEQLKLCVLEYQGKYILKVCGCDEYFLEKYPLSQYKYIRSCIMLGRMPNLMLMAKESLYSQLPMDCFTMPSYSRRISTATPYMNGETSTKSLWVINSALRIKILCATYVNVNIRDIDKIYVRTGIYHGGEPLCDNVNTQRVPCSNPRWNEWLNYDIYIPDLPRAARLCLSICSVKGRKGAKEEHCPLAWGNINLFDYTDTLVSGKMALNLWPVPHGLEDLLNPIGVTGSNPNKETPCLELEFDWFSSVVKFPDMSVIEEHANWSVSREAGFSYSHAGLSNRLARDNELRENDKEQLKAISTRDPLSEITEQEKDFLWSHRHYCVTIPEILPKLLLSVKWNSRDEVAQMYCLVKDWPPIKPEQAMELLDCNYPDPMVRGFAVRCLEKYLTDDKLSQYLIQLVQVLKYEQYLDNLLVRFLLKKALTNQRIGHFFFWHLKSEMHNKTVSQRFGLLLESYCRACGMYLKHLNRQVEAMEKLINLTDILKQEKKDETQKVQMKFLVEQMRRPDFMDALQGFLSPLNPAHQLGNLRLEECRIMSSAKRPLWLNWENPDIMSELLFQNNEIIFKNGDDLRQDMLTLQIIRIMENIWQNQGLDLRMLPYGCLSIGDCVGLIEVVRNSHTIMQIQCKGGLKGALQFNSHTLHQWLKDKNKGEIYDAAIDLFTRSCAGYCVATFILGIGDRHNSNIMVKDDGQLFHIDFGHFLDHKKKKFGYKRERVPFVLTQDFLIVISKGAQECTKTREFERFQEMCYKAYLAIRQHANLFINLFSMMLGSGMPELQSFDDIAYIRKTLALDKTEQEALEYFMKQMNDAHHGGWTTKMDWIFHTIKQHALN

For `C[C@H]1OC(=O)N(c2nc(-c3cnc(N)nc3C(F)(F)F)cc(N3CCOCC3)n2)[C@H]1CO`, in data set [1], the AUC(0-t) at 192 h is 5.5 µM·h. In data set [2], the Tmax is 0.5 h. The compound also gave a half-life in data set [3] of 2 h. This compound showed a Cmax in [4] of 2910 nM. Moreover, the hepatic extraction ratio at 1 h in [5] stood at 0.35; in data set [9], 0.34. Moreover, the T/C with Rat1 is on record as -0.86. The same compound came in with a solubility in data set [6] of 31 µM (≈ 14.1 µg/mL). In data set [7], this compound had a solubility at 0.5 h of 64 µM (≈ 29.1 µg/mL). For the same compound, the Tlast is 24 h in data set [8] and 14 h in data set [13]. The same compound came in with a Cmax/dose in [10] of 22 nM. Also, the IC50 in [11] was 169 nM; in data set [14] it was 8.3 nM; in data set [17] it was 12 nM. For the same compound, the AUC/dose in [12] was determined as 12970 nM·h. The fraction unbound at 4 h in data set [15] is 0.24. The compound also had a Vdss in data set [16] of 1.5 L/kg. Moreover, in data set [18], the Activity entry is “Non-Toxic”.
